Measured values published in publication PMC12647892, “State-selective small molecule degraders that preferentially remove aggregates and oligomers” (Nature Communications, 2025).

Biological target: T1, TRIM21 PRYSPRY (Homo sapiens, UniProt P19474)
T1 construct: PRYSPRY domain (TRIM21his-PS)
Assay: crystal structure; fluorescence polarisation, tryptophan quenching, nanoDSF
Format: binding

T1 sequence (P19474 287-465 limits assumed): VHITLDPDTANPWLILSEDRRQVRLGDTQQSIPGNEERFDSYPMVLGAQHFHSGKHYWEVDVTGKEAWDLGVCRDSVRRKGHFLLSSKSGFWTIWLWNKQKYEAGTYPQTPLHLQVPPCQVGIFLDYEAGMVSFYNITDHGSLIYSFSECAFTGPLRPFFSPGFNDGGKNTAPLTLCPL

- Kd: 400 nM
SMILES: CNC(=O)[C@H](Cc1ccncc1)NC(=O)[C@@H]1C[C@@H](C2CCCCC2)CN1C(=O)C[C@H](N)c1ccccc1OC [MRC37]
